Test results from ChEMBL document CHEMBL1141982, “A rate determining step change in the pre-steady state of acetylcholinesterase inhibitions by 1,n-alkane-di-N-butylcarbamates” (Bioorg Med Chem Lett, 2005).

Key:
[1] = Carbamylation rate constant was determined
Acetylcholinesterase [2] = molecular target: T1, Acetylcholinesterase (Homo sapiens, UniProt P22303); experiment: Kinetic constant (k-2) for acetylcholinesterase
Acetylcholinesterase [3] = molecular target: T1, Acetylcholinesterase; experiment: Kinetic constant (k2) for acetylcholinesterase
Acetylcholinesterase [4] = molecular target: T1, Acetylcholinesterase; experiment: Ratio of k2/k-2 for acetylcholinesterase
Acetylcholinesterase [5] = molecular target: T1, Acetylcholinesterase; experiment: Dissociation constant for acetylcholinesterase
Acetylcholinesterase [6] = molecular target: T1, Acetylcholinesterase; experiment: Inhibition constant for acetylcholinesterase

T1 sequence (P22303 whole entry): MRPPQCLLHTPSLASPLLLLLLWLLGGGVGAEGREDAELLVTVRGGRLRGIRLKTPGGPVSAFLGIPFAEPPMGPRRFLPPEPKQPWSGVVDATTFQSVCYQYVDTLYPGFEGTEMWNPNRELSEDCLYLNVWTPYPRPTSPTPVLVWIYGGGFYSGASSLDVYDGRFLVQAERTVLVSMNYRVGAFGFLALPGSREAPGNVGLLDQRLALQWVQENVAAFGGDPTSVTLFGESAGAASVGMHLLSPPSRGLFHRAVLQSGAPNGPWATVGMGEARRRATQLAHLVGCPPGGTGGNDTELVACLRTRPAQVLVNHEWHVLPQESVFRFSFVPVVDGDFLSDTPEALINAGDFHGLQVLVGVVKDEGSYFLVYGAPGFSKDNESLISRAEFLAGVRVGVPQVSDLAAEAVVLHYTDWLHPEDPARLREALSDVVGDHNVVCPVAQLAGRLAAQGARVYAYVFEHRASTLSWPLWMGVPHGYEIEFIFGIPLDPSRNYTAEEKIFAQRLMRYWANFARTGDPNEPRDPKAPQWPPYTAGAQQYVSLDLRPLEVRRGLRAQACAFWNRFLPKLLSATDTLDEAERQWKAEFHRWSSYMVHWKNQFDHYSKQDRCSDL

For `CCCCNC(=O)OCCCCCCCCCCCCCCCCOC(=O)NCCCC`, the kc [1] was 5.3 10e-3 1/s, the k-2 (Acetylcholinesterase [2]) was 3.1 10e-3 1/s and the k2 (Acetylcholinesterase [3]) was 6.1 10e-3 1/s. The Ratio (Acetylcholinesterase [4]) was 2, the Ks (Acetylcholinesterase [5]) was 0.34 µM and the Ki (Acetylcholinesterase [6]) was 170 nM.

For `CCCCNC(=O)OCCCCCCCCCCO`, the kc [1] was 3.9 10e-3 1/s, the k-2 (Acetylcholinesterase [2]) was 3.1 10e-3 1/s and the k2 (Acetylcholinesterase [3]) was 7.6 10e-3 1/s. For the same compound, the Ratio (Acetylcholinesterase [4]) was 2.5, the Ks (Acetylcholinesterase [5]) was 0.52 µM and the Ki (Acetylcholinesterase [6]) was 200 nM.

For `CCCCNC(=O)OCCCCCCCCCCOC(=O)NCCCC`, the kc [1] was 4.1 10e-3 1/s, the k-2 (Acetylcholinesterase [2]) was 2 10e-3 1/s and the k2 (Acetylcholinesterase [3]) was 4.6 10e-3 1/s. For the same compound, the Ratio (Acetylcholinesterase [4]) was 2.3, the Ks (Acetylcholinesterase [5]) was 0.37 µM and the Ki (Acetylcholinesterase [6]) was 160 nM.

For `CCCCNC(=O)OCCCCCCCCCCCCCCOC(=O)NCCCC`, the kc [1] was 4.9 10e-3 1/s, the k-2 (Acetylcholinesterase [2]) was 2.4 10e-3 1/s and the k2 (Acetylcholinesterase [3]) was 5.4 10e-3 1/s. For the same compound, the Ratio (Acetylcholinesterase [4]) was 2.3, the Ks (Acetylcholinesterase [5]) was 0.36 µM and the Ki (Acetylcholinesterase [6]) was 160 nM.

In the case of `CCCCNC(=O)OCCCCCCCCOC(=O)NCCCC`, the kc [1] is reported as 4 10e-3 1/s, the k-2 (Acetylcholinesterase [2]) is reported as 1.6 10e-3 1/s and the k2 (Acetylcholinesterase [3]) is reported as 4.2 10e-3 1/s. For the same compound, the Ratio (Acetylcholinesterase [4]) was 2.6, the Ks (Acetylcholinesterase [5]) was 0.39 µM and the Ki (Acetylcholinesterase [6]) was 150 nM.

With `CCCCNC(=O)OCCCCCCCCCCCCO` the kc [1] was 4.1 10e-3 1/s, the k-2 (Acetylcholinesterase [2]) was 4 10e-3 1/s and the k2 (Acetylcholinesterase [3]) was 8.1 10e-3 1/s. It also gave a Ratio (Acetylcholinesterase [4]) of 2, a Ks (Acetylcholinesterase [5]) of 0.65 µM and a Ki (Acetylcholinesterase [6]) of 300 nM.

In the case of `CCCCNC(=O)OCCO`, the kc [1] is reported as 3.1 10e-3 1/s, the k-2 (Acetylcholinesterase [2]) is reported as 5 10e-3 1/s and the k2 (Acetylcholinesterase [3]) is reported as 7.5 10e-3 1/s. It also gave a Ratio (Acetylcholinesterase [4]) of 1.5 and a Ks (Acetylcholinesterase [5]) of 2.3 µM.

With `CCCCNC(=O)OCCCCCCCCCCCCCCO` the kc [1] was 4.6 10e-3 1/s, the k-2 (Acetylcholinesterase [2]) was 4 10e-3 1/s and the k2 (Acetylcholinesterase [3]) was 5.3 10e-3 1/s. The Ratio (Acetylcholinesterase [4]) was 1.3, the Ks (Acetylcholinesterase [5]) was 0.45 µM and the Ki (Acetylcholinesterase [6]) was 200 nM.

With `CCCCNC(=O)OCCCCCCCCCCCCOC(=O)NCCCC` the kc [1] was 4.6 10e-3 1/s, the k-2 (Acetylcholinesterase [2]) was 2.2 10e-3 1/s and the k2 (Acetylcholinesterase [3]) was 5 10e-3 1/s. It also gave a Ratio (Acetylcholinesterase [4]) of 2.2, a Ks (Acetylcholinesterase [5]) of 0.36 µM and a Ki (Acetylcholinesterase [6]) of 160 nM.

In the case of `CCCCNC(=O)OCCCCCOC(=O)NCCCC`, the kc [1] is reported as 3.3 10e-3 1/s, the k-2 (Acetylcholinesterase [2]) is reported as 0.62 10e-3 1/s and the k2 (Acetylcholinesterase [3]) is reported as 3.4 10e-3 1/s. The Ratio (Acetylcholinesterase [4]) was 5.5, the Ks (Acetylcholinesterase [5]) was 1.4 µM and the Ki (Acetylcholinesterase [6]) was 250 nM.

For `CCCCNC(=O)OCCCCCCCCCCCCCCCCO`, the kc [1] was 4.9 10e-3 1/s, the k-2 (Acetylcholinesterase [2]) was 3 10e-3 1/s and the k2 (Acetylcholinesterase [3]) was 6.1 10e-3 1/s. The Ratio (Acetylcholinesterase [4]) was 2, the Ks (Acetylcholinesterase [5]) was 0.37 µM and the Ki (Acetylcholinesterase [6]) was 130 nM.

In the case of `CCCCNC(=O)OCCCCCCCCO`, the kc [1] is reported as 3.6 10e-3 1/s, the k-2 (Acetylcholinesterase [2]) is reported as 3 10e-3 1/s and the k2 (Acetylcholinesterase [3]) is reported as 7.2 10e-3 1/s. It also gave a Ratio (Acetylcholinesterase [4]) of 2.4, a Ks (Acetylcholinesterase [5]) of 0.88 µM and a Ki (Acetylcholinesterase [6]) of 360 nM.

In the case of `CCCCNC(=O)OCCOC(=O)NCCCC`, the kc [1] is reported as 3 10e-3 1/s, the k-2 (Acetylcholinesterase [2]) is reported as 0.35 10e-3 1/s and the k2 (Acetylcholinesterase [3]) is reported as 2.8 10e-3 1/s. It also gave a Ratio (Acetylcholinesterase [4]) of 8, a Ks (Acetylcholinesterase [5]) of 2.9 µM and a Ki (Acetylcholinesterase [6]) of 360 nM.

For `CCCCNC(=O)OCCCCCO`, the kc [1] was 3.5 10e-3 1/s, the k-2 (Acetylcholinesterase [2]) was 5 10e-3 1/s and the k2 (Acetylcholinesterase [3]) was 8.1 10e-3 1/s. For the same compound, the Ratio (Acetylcholinesterase [4]) was 2, the Ks (Acetylcholinesterase [5]) was 2.2 µM and the Ki (Acetylcholinesterase [6]) was 1400 nM.
